Laboratory results taken from ChEMBL document CHEMBL1697692, “Developing structure-activity relationships for the prediction of hepatotoxicity” (Chem Res Toxicol, 2010).
Numbered stars: 1 amine (or outer) side, 2 acyl side, 3 side chain; on linkers, the order of the positions; unused ones are H or OH. Bridge positions count the residues as written; N and C are the ends. Square brackets hold non-standard residues; d marks the D form. Peptide text beside a SMILES is read from it. Adda = CO[C@@H](Cc1ccccc1)[C@@H](C)/C=C(C)/C=C/[C@H](N[*:1])[C@H](C)C(=O)[*:2]; dAsp(3S-Me) = C[C@H](C(=O)[*:3])[C@@H](N[*:1])C(=O)[*:2]; d(γGlu) = O=C(O)[C@@H](CCC(=O)[*:2])N[*:1]; NMeDha = C=C(NC)C(=O)O

Tested on: Hepatotoxicity
Assay: Literature-mined public compounds from Greene et al multi-species hepatotoxicity modelling dataset

Row | Molecule | Hepatotoxicity
1 | Cl.N[C@@H]1C[C@H]1c1ccccc1 [TRANYLCYPROMINE HYDROCHLORIDE] | NE: No evidence of hepatotoxicity in any species
2 | Clc1ccc2c(c1)C(N1CCNCC1)=Nc1ccccc1O2 [AMOXAPINE] | WE: Weak evidence (<10 case reports) of human hepatotoxicity
3 | O[C@H]1[C@H](O)[C@@H](O)[C@H](O)[C@@H](O)[C@H]1O [INOSITOL] | NE: No evidence of hepatotoxicity in any species
4 | NC1=NC(=O)C(c2ccccc2)O1 (centres undefined) [PEMOLINE] | HH: Evidence of human hepatotoxicity
5 | N[C@@H](C(=O)N[C@@H]1C(=O)N2C(C(=O)O)=C(Cl)CC[C@H]12)c1ccccc1 [LORACARBEF ANHYDROUS] | NE: No evidence of hepatotoxicity in any species
6 | CC1(C)C(C=C(Cl)Cl)C1C(=O)OCc1cccc(Oc2ccccc2)c1 (centres undefined) [PERMETHRIN] | NE: No evidence of hepatotoxicity in any species
7 | CN1CCCCC1CCN1c2ccccc2Sc2ccc([S+](C)[O-])cc21.O=S(=O)(O)c1ccccc1 (centres undefined) [MESORIDAZINE BESYLATE] | HH: Evidence of human hepatotoxicity
8 | NN [HYDRAZINE] | AH: Evidence for animal hepatotoxicity but not tested in humans
9 | CCC(=O)O[C@H]1[C@H](O[C@@H]2[C@@H](C)[C@H](O[C@H]3C[C@@](C)(OC)[C@@H](O)[C@H](C)O3)[C@@H](C)C(=O)O[C@H](CC)[C@@](C)(O)[C@H](O)[C@@H](C)C(=O)[C@H](C)C[C@@]2(C)O)O[C@H](C)C[C@@H]1N(C)C.CCCCCCCCCCCCOS(=O)(=O)O [ERYTHROMYCIN ESTOLATE] | HH: Evidence of human hepatotoxicity
10 | N#CC(C#N)=NNc1ccc(OC(F)(F)F)cc1 | AH: Evidence for animal hepatotoxicity but not tested in humans
11 | C[C@H](CCC(=O)O)[C@H]1CC[C@H]2[C@@H]3[C@@H](O)C[C@@H]4C[C@H](O)CC[C@]4(C)[C@H]3CC[C@]12C (stereo in doubt; form 2) [URSODIOL] | WE: Weak evidence (<10 case reports) of human hepatotoxicity
12 | CC[C@]1(O)C[C@@H]2CN(CCc3c([nH]c4ccccc34)[C@@](C(=O)OC)(c3cc4c(cc3OC)N(C)[C@H]3[C@@](O)(C(=O)OC)[C@H](OC(C)=O)[C@]5(CC)C=CCN6CC[C@]43[C@@H]65)C2)C1.O=S(=O)(O)O [VINBLASTINE SULFATE] | NE: No evidence of hepatotoxicity in any species
13 | C[C@@H]1C[C@H]2[C@@H]3CCC4=CC(=O)C=C[C@]4(C)[C@@]3(F)[C@@H](O)C[C@]2(C)[C@@]1(O)C(=O)CO [DEXAMETHASONE] | NE: No evidence of hepatotoxicity in any species
14 | C=C(C)[C@H]1CC=C(C)CC1 [D-LIMONENE] | AH: Evidence for animal hepatotoxicity but not tested in humans
15 | Cl.O=c1n(CCCN2CCN(c3cccc(Cl)c3)CC2)nc2ccccn12 [TRAZODONE HYDROCHLORIDE] | HH: Evidence of human hepatotoxicity
16 | CCC1=C(C)CN(C(=O)NCCc2ccc(S(=O)(=O)NC(=O)N[C@H]3CC[C@H](C)CC3)cc2)C1=O [GLIMEPIRIDE] | WE: Weak evidence (<10 case reports) of human hepatotoxicity
17 | CN(C)CCCN1c2ccccc2CCc2ccc(Cl)cc21 [CLOMIPRAMINE] | HH: Evidence of human hepatotoxicity
18 | C1CCC(C(CC2CCCCN2)C2CCCCC2)CC1 (centres undefined) [PERHEXILINE] | HH: Evidence of human hepatotoxicity
19 | COC(=O)C1=C(C)NC(C)=C(C(=O)OC)C1c1ccccc1[N+](=O)[O-] [NIFEDIPINE] | HH: Evidence of human hepatotoxicity
20 | CC(=O)N(O)CCCCCNC(=O)CCC(=O)N(O)CCCCCNC(=O)CCC(=O)N(O)CCCCCN.CS(=O)(=O)O [DEFEROXAMINE MESYLATE] | HH: Evidence of human hepatotoxicity

Row | Molecule | Hepatotoxicity
21 | CC1(C)[C@@H](OC(=O)CCC(=O)[O-])CC[C@]2(C)[C@H]3C(=O)C=C4[C@@H]5C[C@@](C)(C(=O)[O-])CC[C@]5(C)CC[C@@]4(C)[C@]3(C)CC[C@@H]12.[Na+].[Na+] [CARBENOXOLONE SODIUM] | NE: No evidence of hepatotoxicity in any species
22 | Cl.Cl.OCCN1CCN(CC/C=C2/c3ccccc3Sc3ccc(C(F)(F)F)cc32)CC1 | NE: No evidence of hepatotoxicity in any species
23 | CC(C)Cc1ccc(CC(=O)O)cc1 [IBUFENAC] | HH: Evidence of human hepatotoxicity
24 | CC1=C(/C=C/C(C)=C/C=C/C(C)=C\C(=O)O)C(C)(C)CCC1 [ISOTRETINOIN] | HH: Evidence of human hepatotoxicity
25 | Cc1ccc(S(=O)(=O)NC(=O)NN2CC3CCCC3C2)cc1 (centres undefined) [GLICLAZIDE] | WE: Weak evidence (<10 case reports) of human hepatotoxicity
26 | COCCOC(=O)C1=C(C)NC(C)=C(C(=O)OC(C)C)C1c1cccc([N+](=O)[O-])c1 (centres undefined) [NIMODIPINE] | HH: Evidence of human hepatotoxicity
27 | O=C1O[C@H]([C@@H](O)CO)C(O)=C1O [ASCORBIC ACID] | NE: No evidence of hepatotoxicity in any species
28 | CCOc1nc2cccc(C(=O)O)c2n1Cc1ccc(-c2ccccc2-c2nnn[nH]2)cc1 | WE: Weak evidence (<10 case reports) of human hepatotoxicity
29 | CN(C)CCCN1c2ccccc2Sc2ccccc21.Cl [PROMAZINE HYDROCHLORIDE] | WE: Weak evidence (<10 case reports) of human hepatotoxicity
30 | CC[N+](CC)(CC)CCOc1cccc(OCC[N+](CC)(CC)CC)c1OCC[N+](CC)(CC)CC.[I-].[I-].[I-] [GALLAMINE TRIETHIODIDE] | NE: No evidence of hepatotoxicity in any species
31 | CNS(=O)(=O)Cc1ccc2[nH]cc(CCN(C)C)c2c1 | NE: No evidence of hepatotoxicity in any species
32 | COc1ccc2c(c1)c(CC(=O)O)c(C)n2C(=O)c1ccc(Cl)cc1 [INDOMETHACIN] | HH: Evidence of human hepatotoxicity
33 | Nc1nc(NC2CC2)c2ncn([C@H]3C=C[C@@H](CO)C3)c2n1 [ABACAVIR] | HH: Evidence of human hepatotoxicity
34 | Nc1cc(-c2ccncc2)c[nH]c1=O [INAMRINONE] | HH: Evidence of human hepatotoxicity
35 | Cc1nc(C)c2c(n1)N(Cc1ccc(-c3ccccc3-c3nnn[nH]3)cc1)C(=O)CC2 [TASOSARTAN] | HH: Evidence of human hepatotoxicity
36 | CCSCC[C@H](N)C(=O)O (stereo in doubt; form 1) [ETHIONINE] | HH: Evidence of human hepatotoxicity
37 | CC[C@H]1OC(=O)[C@H](C)C(=O)[C@H](C)[C@@H](O[C@@H]2O[C@H](C)C[C@H](N(C)C)[C@H]2O)[C@](C)(OC)C[C@@H](C)C(=O)[C@H](C)[C@H]2N(CCCCn3cnc(-c4cccnc4)c3)C(=O)O[C@]12C [TELITHROMYCIN] | HH: Evidence of human hepatotoxicity
38 | NC(=O)OCC(COC(N)=O)c1ccccc1 [FELBAMATE] | HH: Evidence of human hepatotoxicity
39 | C=C[C@H]1CN2CC[C@H]1C[C@H]2[C@H](O)c1ccnc2ccc(OC)cc12.C=C[C@H]1CN2CC[C@H]1C[C@H]2[C@H](O)c1ccnc2ccc(OC)cc12.O.O.O=S(=O)(O)O [QUININE SULFATE] | HH: Evidence of human hepatotoxicity
40 | C[C@H]1COc2c(N3CCN(C)CC3)c(F)cc3c(=O)c(C(=O)O)cn1c23.C[C@H]1COc2c(N3CCN(C)CC3)c(F)cc3c(=O)c(C(=O)O)cn1c23.O [LEVOFLOXACIN] | WE: Weak evidence (<10 case reports) of human hepatotoxicity

Row | Molecule | Hepatotoxicity
41 | O=C1C(CC[S+]([O-])c2ccccc2)C(=O)N(c2ccccc2)N1c1ccccc1 (centres undefined) [SULFINPYRAZONE] | HH: Evidence of human hepatotoxicity
42 | CNCCCC12CCC(c3ccccc31)c1ccccc12 [MAPROTILINE] | WE: Weak evidence (<10 case reports) of human hepatotoxicity
43 | LACTOSE, ANHYDROUS | NE: No evidence of hepatotoxicity in any species
44 | NC(=O)c1cnccn1 [PYRAZINAMIDE] | HH: Evidence of human hepatotoxicity
45 | CN1CCC(=C2c3ccccc3C=Cc3ccccc32)CC1.Cl [CYPROHEPTADINE HYDROCHLORIDE] | HH: Evidence of human hepatotoxicity
46 | CCN(CC)CCOc1ccc(/C(=C(/Cl)c2ccccc2)c2ccccc2)cc1.O=C(O)CC(O)(CC(=O)O)C(=O)O [ENCLOMIPHENE CITRATE] | HH: Evidence of human hepatotoxicity
47 | O=C1CC2(CCCC2)CC(=O)N1CCCCN1CCN(c2ncccn2)CC1 [BUSPIRONE] | NE: No evidence of hepatotoxicity in any species
48 | GADOLINIUM HYDROCHLORIDE | AH: Evidence for animal hepatotoxicity but not tested in humans
49 | O=S(=O)(O)O.Oc1cccc2cccnc12.Oc1cccc2cccnc12 [OXYQUINOLINE SULFATE] | HH: Evidence of human hepatotoxicity
50 | OCC(S)CS (centres undefined) [DIMERCAPROL] | HH: Evidence of human hepatotoxicity
51 | CC12CC3CC(C)(C1)CC(N)(C3)C2 [MEMANTINE] | NE: No evidence of hepatotoxicity in any species
52 | CCC1(C)CC(=O)NC1=O (centres undefined) [ETHOSUXIMIDE] | HH: Evidence of human hepatotoxicity
53 | CC1CN(c2cc3c(cc2F)c(=O)c(C(=O)O)cn3-c2ccc(F)cc2F)CCN1 (centres undefined) [TEMAFLOXACIN] | HH: Evidence of human hepatotoxicity
54 | C[C@H]1[C@H](NC(=O)/C(=N\OC(C)(C)C(=O)O)c2csc(N)n2)C(=O)N1S(=O)(=O)O [AZTREONAM] | NE: No evidence of hepatotoxicity in any species
55 | NNC(=O)c1ccncc1 [ISONIAZID] | HH: Evidence of human hepatotoxicity
56 | C=C1C(=O)N[C@H](C)C(=O)N[C@@H](CC(C)C)C(=O)N[C@@H](C(=O)O)[C@H](C)C(=O)N[C@@H](CCCNC(=N)N)C(=O)N[C@@H](/C=C/C(C)=C/[C@H](C)[C@H](Cc2ccccc2)OC)[C@H](C)C(=O)N[C@@H](C(=O)O)CCC(=O)N1C [MICROCYSTIN-LR] (R[Adda][d(γGlu)][NMeDha][dA]L[dAsp(3S-Me)]-OH; lactam N-7) | AH: Evidence for animal hepatotoxicity but not tested in humans
57 | Cc1ccc(-c2nc3ccc(C)cn3c2CC(=O)N(C)C)cc1 [ZOLPIDEM] | WE: Weak evidence (<10 case reports) of human hepatotoxicity
58 | COCc1c(C(C)C)nc(C(C)C)c(/C=C/[C@@H](O)C[C@@H](O)CC(=O)O)c1-c1ccc(F)cc1 [CERIVASTATIN] | HH: Evidence of human hepatotoxicity
59 | CN1CCN(C2=Nc3cc(Cl)ccc3Nc3ccccc32)CC1 [CLOZAPINE] | HH: Evidence of human hepatotoxicity
